According to patent US20110189169A1, “COMBINATION OF HGF INHIBITOR AND PTEN AGONIST TO TREAT CANCER” (GALAXY BIOTECH, LLC, priority 2008, published 2011):

Legend:
[1] = molecular target: heparin sulfate proteoglycans (HSPG); settings: read-out: Kd, low affinity binding site; cited from earlier work
cMet receptor = cMet receptor (Homo sapiens, UniProt P08581); settings: read-out: Kd, high affinity binding site; cited from earlier work
U-87 MG cells = experiment: Subcutaneous human glioblastoma U-87 MG tumor xenograft model; format: in vivo, athymic nude mice (BALB/c-nu/nu); settings: HuL2G7 0.5 mg/kg i.v. days 12 and 18
Description: The combination effect of HuL2G7 with Rapamycin was examined in human glioblastoma U-87 MG tumor xenograft model. Female athymic nude mice (BALB/c-nu/nu, 30 animals) were purchased from Charles River Laboratories (Kanagawa, Japan). Mice were housed in a barrier facility with 12-h light/dark cycles and provided with food and tap water ad libitum and maintained for three weeks. U-87 MG cells (2.5×10^6 in 100 μL) were suspended with 50% Matrigel (BD Biosciences) buffered with Hanks. balanced salt solution (Invitrogen Corp, Carlsbad, Calif., USA) and inoculated subcutaneously into the right-flank of each mouse. After the tumor xenografts were established, at day 12 after inoculation, mice with tumors (approximately 95-272 mm^3) were randomized into groups of 4 (n=6) based on tumor volumes so as to minimize variation in tumor volumes. Then each group was treated with vehicle, HuL2G7, Rapamycin, or both drugs. […] Tumor volumes were assessed by bilateral vernier caliper measurement at days 12, 15, 18, 22, and 26 after inoculation and calculated using the formula, length×width^2×½, where length was taken to be the longest diameter across the tumor and width the corresponding perpendicular. Tumor growth was evaluated by the following formula: T/C (%)=ΔT/ΔC×100, where ΔT and ΔC are changes in tumor volume for each treated and vehicle control group. […]

cMet receptor, sequence (P08581 25-1390): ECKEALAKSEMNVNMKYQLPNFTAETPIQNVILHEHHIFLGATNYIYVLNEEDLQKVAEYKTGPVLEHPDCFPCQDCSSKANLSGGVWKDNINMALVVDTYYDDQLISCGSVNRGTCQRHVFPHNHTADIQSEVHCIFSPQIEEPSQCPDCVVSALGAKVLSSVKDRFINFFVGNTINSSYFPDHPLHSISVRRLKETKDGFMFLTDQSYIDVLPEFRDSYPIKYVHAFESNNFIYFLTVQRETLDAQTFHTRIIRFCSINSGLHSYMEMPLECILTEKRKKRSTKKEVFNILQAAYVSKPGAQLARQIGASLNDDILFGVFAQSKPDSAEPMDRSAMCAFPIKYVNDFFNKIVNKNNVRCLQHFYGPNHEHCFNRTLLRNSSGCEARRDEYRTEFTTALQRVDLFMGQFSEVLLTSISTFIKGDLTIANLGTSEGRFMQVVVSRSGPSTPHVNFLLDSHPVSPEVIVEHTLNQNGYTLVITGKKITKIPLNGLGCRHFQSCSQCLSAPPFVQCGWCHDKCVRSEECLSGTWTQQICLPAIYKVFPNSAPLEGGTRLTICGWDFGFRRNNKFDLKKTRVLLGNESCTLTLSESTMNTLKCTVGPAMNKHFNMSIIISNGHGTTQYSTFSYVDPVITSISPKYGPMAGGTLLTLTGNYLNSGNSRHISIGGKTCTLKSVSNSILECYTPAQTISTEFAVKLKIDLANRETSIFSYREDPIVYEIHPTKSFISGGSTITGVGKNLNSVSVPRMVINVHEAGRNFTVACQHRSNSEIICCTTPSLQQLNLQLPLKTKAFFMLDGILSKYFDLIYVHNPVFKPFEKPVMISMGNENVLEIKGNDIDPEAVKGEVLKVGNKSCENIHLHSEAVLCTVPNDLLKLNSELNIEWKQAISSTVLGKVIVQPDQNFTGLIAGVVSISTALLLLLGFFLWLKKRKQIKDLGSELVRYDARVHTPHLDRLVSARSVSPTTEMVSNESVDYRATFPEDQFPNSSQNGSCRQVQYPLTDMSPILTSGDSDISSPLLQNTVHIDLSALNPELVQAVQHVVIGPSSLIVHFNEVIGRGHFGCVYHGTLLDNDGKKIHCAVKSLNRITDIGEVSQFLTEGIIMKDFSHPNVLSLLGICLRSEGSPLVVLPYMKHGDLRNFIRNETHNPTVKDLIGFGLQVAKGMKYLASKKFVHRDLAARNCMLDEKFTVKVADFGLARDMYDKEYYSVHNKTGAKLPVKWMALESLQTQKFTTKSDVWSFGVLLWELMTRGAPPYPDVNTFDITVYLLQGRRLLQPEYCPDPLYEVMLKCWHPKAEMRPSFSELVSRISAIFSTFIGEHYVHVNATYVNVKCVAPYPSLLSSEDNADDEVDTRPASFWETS

Compound: HGF: Human Hepatocyte Growth Factor, 102 kDa heterodimeric polypeptide, ligand of cMet
- Kd [1]: 1 nM
- Kd (cMet receptor): 0.2 nM

Compound: CO[C@H]1C[C@@H]2CC[C@@H](C)[C@@](O)(O2)C(=O)C(=O)N2CCCC[C@H]2C(=O)O[C@H]([C@H](C)C[C@@H]2CC[C@@H](O)[C@H](OC)C2)CC(=O)[C@H](C)/C=C(\C)[C@@H](O)[C@@H](OC)C(=O)[C@H](C)C[C@H](C)/C=C/C=C/C=C/1C [rapamycin, reference compound]
- general observations of animals (U-87 MG cells; Rapamycin 0.1 mg/kg i.p. days 12-26, or both): no abnormalities in general observations
- T/C (%)=ΔT/ΔC×100 (U-87 MG cells; day 26, Rapamycin 0.1 mg/kg i.p. once-daily days 12-26): 9.6%
